The numbers were not newly measured in patent US9375470B2, “Compositions with reduced dimer formation” (Circassia Limited, priority 2008, dated 2016), which cites them from elsewhere.

Read-outs that look alike come from different tables or passages of the source.

[1] abbreviates: reported values, Tg for the maximally freeze concentrated state.

For `OC[C@H]1O[C@@](CO)(O[C@H]2O[C@H](CO)[C@@H](O)[C@H](O)[C@H]2O)[C@@H](O[C@H]2O[C@H](CO)[C@@H](O)[C@H](O)[C@H]2O)[C@@H]1O` [Melezitose], the Tg (reported values) was greater than 100 °C.

Consider `OC[C@H]1O[C@H](OC[C@H]2O[C@H](O[C@]3(CO)O[C@H](CO)[C@@H](O)[C@@H]3O)[C@H](O)[C@@H](O)[C@@H]2O)[C@H](O)[C@@H](O)[C@H]1O` [Raffinose], for which, for the setting “reported values”, the Tg was 70-106 °C. The “Tg′” value under setting [1] is on record as “Approx. −36”. With `OC[C@H]1O[C@H](OC[C@H]2O[C@H](OC[C@H]3O[C@H](O[C@]4(CO)O[C@H](CO)[C@@H](O)[C@@H]4O)[C@H](O)[C@@H](O)[C@@H]3O)[C@H](O)[C@@H](O)[C@H]2O)[C@H](O)[C@@H](O)[C@H]1O` [Stachyose], where the note is “reported values”, the Tg was 81-123 °C. As to `OC[C@H]1O[C@@](CO)(O[C@H]2O[C@H](CO)[C@@H](O)[C@H](O)[C@H]2O)[C@@H](O)[C@@H]1O` [Sucrose], the “Tg′” value was −32 °C. In addition, the Tg (reported values) was 43-65 °C. Also, the “Tg′” value under setting [1] is “Approx. −46”.

As for `OC[C@H]1O[C@H](O[C@H]2O[C@H](CO)[C@@H](O)[C@H](O)[C@H]2O)[C@H](O)[C@@H](O)[C@@H]1O` [Trehalose], the Tg (reported values) was 63-115 °C. Under setting [1], the “Tg′” value is listed as “Approx. −27”. As to `OC[C@@H](O)[C@@H](O)[C@H](O)[C@H](O)CO` [mannitol], the “Teut (eutectic temperature)” value is −3 °C.
